Experimental data from patent US20230025891A1, “COMPOSITION OF NATURAL EXTRACTS HAVING ANTIBACTERIAL OR BACTERIOSTATIC ACTIVITY ALSO FOR GRAM-NEGATIVE BACTERIA” (priority 2019, published 2023).

Experiments:
Solubility = assay type: physicochemical; settings: qualitative
Method: Racemic usnic acid (CAS No. 125-46-2) is the bioactive secondary metabolite of lichens. The large-scale use of said usnic acid has always been limited due to the low solubility in water (0.06 mg/cm^3, at room temperature of 20° C. and 1 atmosphere pressure).
As mentioned above, in such compound (ci) the lipophilic cavity of the cyclodextrins (host) hosts D-usnic acid, or salt thereof, or mixtures thereof (i) (guest), through a reversible non-covalent interaction. As a matter of fact, during the formation of the inclusion compound (ci), no covalent bond is formed, and no covalent bond is broken. The mechanism which—at least primarily—promotes the formation of the inclusion compound is the release of solvent molecules (preferably water molecules), a highly enthalpic exchange reaction, from the cyclodextrin cavity (ii). […] Furthermore, the inclusion compound (ci) renders D-usnic acid (or a salt thereof) compatible in an aqueous solution or an aqueous dispersion or an aqueous suspension. When said aqueous solution or dispersion or suspension, containing said inclusion compound (ci), is applied manually—by spraying or mechanically—to a surface such as that of a wall or floor of a hospital or kindergarten or school room, said acid or a salt thereof contained in said inclusion compound (ci) is capable of being placed, adhering and coating said surface uniformly and homogeneously as if it were a coating paint.
Said D-usnic acid as enantiomer (i), preferably as pure enantiomer, is of natural origin and could be associated, as chemical structure, with that of the corresponding synthesis compound having CAS No. 7562-61-0, i.e. the dextrorotatory enantiomer of said acid. The D-usnic acid as the pure enantiomer of the present invention is soluble in chloroform and ethyl acetate. […] Said D-usnic acid as a pure enantiomer has a melting point comprised from 192° C. to 204° C., a flash point of 223° C. and a boiling point of 605° C. Preferably, said D-usnic acid salt as pure enantiomer is a sodium salt. Said inclusion compound (ci) preferably comprises solid particles of D-usnic acid as pure enantiomer, or salt thereof, or mixtures thereof (i). More preferably, said solid particles have an average particle distribution comprised from 0.01 μm to 50 μm, preferably comprised from 0.1 μm to 30 μm, more preferably comprised from 0.15 μm to 20 μm, even more preferably comprised from 0.2 μm to 15 μm. Said average particle distribution was determined and measured using a laser diffraction method, according to the GB/T 19077-2016 standard, for example with a Malvern Mastersizer 3000 instrument. Said standard is meant in the version valid at the priority date of the present patent application. […]

[1] = Observed anti-bacterial efficacy depending on origin and isomer of usnic acid; settings: natural versus synthetic dextrorotatory form
Source text: Therefore, the solubility of usnic acid in water has always represented, and still represents, a great limit to its use. Furthermore, as regards the efficacy of usnic acid (or of a relative salt thereof) in terms of anti-bacterial activity, the inventors of the present invention observed that it depends both on the (natural or synthetic) origin of usnic acid and on the type of isomer (levorotatory(−) and/or dextrorotatory(+)) used.

CC(=O)c1c(O)c(C)c(O)c2c1OC1=CC(=O)C(C(C)=O)C(=O)C12C (single isomer, unassigned; (+)) [D-usnic acid, (+)-Usnic acid 2,6-Diacetyl-7,9-dihydroxy-8,9-dimethyldibenzo[b,d]furan-1,3(2H,9bH)-dione]
solubility in chloroform (Solubility): soluble
solubility in ethanol (Solubility): moderately soluble
solubility in ethyl acetate (Solubility): soluble
solubility in water (Solubility): insoluble
stability, efficacy and activity compared with synthetic origin [1]: more stable, effective and active than the dextrorotatory form (+) of synthetic origin
